Molecules are shown by their SMILES.

Results on two compounds are retold here after patent US8653271B2 (priority 2006, dated 2014).

For series [1] the following is noted: previous experiments; cited from earlier work.
The conditions of series [2]: Table 4; values obtained from Kiptoo et al.; cited from earlier work.
The nature of series [3]: Stratum corneum/vehicle partition coefficient studies. Type of series: in vitro ADME, human. The settings on record: mineral oil vehicle, 32° C., 48 h; no units. The method, then: Human epidermis with stratum corneum (SC) side facing up was incubated on filter paper soaked with 0.1% trypsin in 0.5% sodium bicarbonate solution at 37° C. for 3 h. The SC membrane was separated and dried in a vacuum dessicator. After 24 h, the SC was dipped in acetone for 20 s to remove sebaceous lipids and dried again.
Approximately 5 mg of SC was equilibrated with sub-saturated drug solutions in 0.5 g of mineral oil solution at 32° C. for 48 h. Two different levels of sub-saturated drug solutions, 10 and 20 nmol in 0.5 g of mineral oil, were used in SC/vehicle partition coefficient studies. However, irrespective of the drug concentrations used, the ratio derived should always be the same since the partition coefficient measurement is an equilibrium phenomenon. An aliquot of the mineral oil solution (10 μl) was withdrawn at the end of the study and was diluted to 1000 μl with acetonitrile. The samples were then analyzed by HPLC. The amount of the drug partitioned into the SC was measured by subtracting the amount present in the mineral oil after equilibration from the initial drug concentration in the mineral oil. The partition coefficient ratio was expressed as the concentration of the drug in 1 g of SC divided by the concentration of the drug in 1 g of mineral oil.

For series [4] the following is noted: mice, versus naloxone and naltrexone; cited from earlier work.
Series [5] in a line: Plasma hydrolysis of the carbonate codrug. It counts as in vitro ADME, guinea pig. Particulars: for Guinea pig plasma half-life: guinea pig plasma in vitro at 37° C. As to the method: Guinea pig plasma, which was stored at −20° C., was thawed to room temperature. Known and sub-saturated amounts of the codrug (50 nmol) were added to approximately 2.0 ml of the guinea pig plasma and vortexed. Two-hundred μl aliquots of the spiked plasma were distributed into sealed vials, and incubated at 37° C. Samples were withdrawn at predetermined time intervals; 0, 0.5, 1, 2, 4, 6, 9, 24, 30, and 48 h. 500 μl of ACN was added to each sample to precipitate plasma protein. Each sample was vortexed and centrifuged at 10,000×g for 15 min. The supernatant was separated and evaporated under nitrogen at room temperature, and the residue was reconstituted with ACN for high-pressure liquid chromatography (HPLC) analysis. A standard curve was prepared from drug-spiked plasma samples processed by the same method. The amounts of the codrug remaining or parent drugs released were plotted against time. These hydrolytic profiles were fit to previously developed mathematical models using nonlinear least-squares regression analysis ([…]®, Micromath Inc., Salt Lake City, Utah) as described by the equations below: […]

The conditions of series [6]: humans, systemic circulation after oral dose of NTX; cited from earlier work.
Series [7] concerns electrically-stimulated guinea pig ileum. The settings on record: in vitro; cited from earlier work.
A short description of series [8]: Differential scanning calorimetry. It counts as physicochemical. The settings on record: for Mean activity of solid @ T = 25° C., a2: calculated from melting point and heat of fusion; for Heat of fusion, ΔHf: ±s.d., n = 3.
The format of series [9] is physicochemical. Particulars: isotonic phosphate buffer pH 7.4, 32° C.
Method: Equal amounts of the each of the codrug were distributed into labeled test-tubes (20 nmol in each tube). Care was taken to ensure that the entire codrug was dissolved and the solution remained clear. Hydrolysis of the carbonate codrug (˜20 nmol) was conducted in isotonic phosphate buffer pH 7.4 at 32° C. in a water-bath with continuous stirring. […] Samples were collected at predetermined time intervals and stored in the freezer at −20° C. until analyzed. All experiments were conducted in triplicate. An aliquot part (250 μL) of hydrolysis solutions was mixed with 750 μL of acetonitrile, vortexed for 30s, and analyzed by HPLC for the presence of codrug and the two corresponding parent drugs, as well as for the intermediate hydrolysis product, 23. […] A Brownlee C18 reversed-phase Spheri-5 μm column (220×4.6 mm) connected to a C18 reversed-phase guard column (15×3.2 mm) was utilized and detection of solutes was carried out at 215 nm. The mobile phase consisted of a mixture of acetonitrile: 0.1% trifluoroacetic acid adjusted to pH 3.0 with triethylamine (50:50, v/v). The mobile phase flow rate was 1.5 mL/min and 100 μL of hydrolysis sample was injected onto the column.

Regarding `Oc1ccc2c3c1O[C@H]1[C@H](O)CC[C@@]4(O)[C@@H](C2)N(CC2CC2)CC[C@]314` [Compound 2, 6-β-naltrexol], the “flux and other in vitro permeation parameters, guinea pig skin relative to human skin” value in [1] is reported as 5.6 fold. Also, the “Light mineral oil solubility” value in series [2] was 30 ± 10 µM. Further, the “SC/Vehicle partition coefficient, PC” value in series [3] amounted to 73.91. Further, the “in vivo potency of an acute dose” value in [4] was “less than the other two antagonists”. Further, in series [5], the “Guinea pig plasma half-life” value is reported as “stable”. Also, the half-life entry in series [6] is recorded as “about 12 h”. Also, in [7], the “potency relative to naloxone” value was 4.5 fold and the “potency relative to naltrexone” value was 2.8 fold. For the same compound, in series [8], the “Mean activity of solid @ T = 25° C., a2” value is listed as 0.12 and the “Heat of fusion, ΔHf” value amounted to 3.597 ± 0.0478 kcal/mol.

Consider `Cc1c(-c2cccc(Cl)c2)oc(=O)n1C(C)(C)COC(=O)Oc1ccc2c3c1OC1C(O)CCC4(O)C(C2)N(CC2CC2)CCC314` (stereo not shown) [Compound 26], for which, in series [9] (generation of BUPOH via intermediate from codrug 26), the “first-order rate constant k2” value was 0.0139 ± 0.0006 h⁻¹. Further, the “first-order rate constant k1” value in [9] (hydrolysis at carbonate linker generating NTX (25) or NTXOL (26)) came out at 0.0240 ± 0.0007 h⁻¹. Besides, in [2], the “Light mineral oil solubility” value was 2880 ± 90 µM. Moreover, in [3], the “SC/Vehicle partition coefficient, PC” value worked out at 200.61. Further, the “Guinea pig plasma half-life” value in series [5] (listed as CB-NTXOL-BUPOH) is 8.7 h. In addition, in series [5] (listed as codrug), the “Guinea pig plasma half-life” value is given as “approximately 8.7 h”. Also, the “hydrolysis in guinea pig plasma compared to pH 7.4 phosphate buffer” value in series [5] (in vitro) was “almost three-fold faster hydrolysis”. Further, in [8], the “Mean activity of solid @ T = 25° C., a2” value was 0.20 and the “Heat of fusion, ΔHf” value is 3.031 ± 0.019 kcal/mol.
